Assay results taken from patent US6503709B1, “Methods for rapidly detecting methicillin resistant staphylococci” (priority 1997, dated 2003).
≈ marks a conversion by molar mass, not a printed value. {Fluorescein} = fluorescein label; {Biotin} = biotin label; d = 2'-deoxy (DNA); r = 2'-OH (RNA)

Columns and labels:
mecA gene [1] = experiment: Non-isotopic CPT assay (CPT-EIA) on crude lysates of clinical isolates; format: biochemical, Staphylococcus aureus; conditions: n = 51, subtractive CPT assay
Excerpt: The non-isotopic MRSA Assay which combines CPT with an enzyme immunoassay (CPT-EIA) is schematically illustrated in FIG. 3. This Rapid MRSA Test uses a fluoresceinated and biotinylated chimeric probe which provides an RNase H sensitive scissile linkage when bound to the complementary base sequence of the mecA gene. The uncleaved probe (mecA negative) is detected by binding of the probe to a solid surface and attachment of an antibody conjugated with horse radish peroxidase, which converts a substrate to a colored end product. Cleavage of the probe (mecA positive) prevents binding of the probe-antibody complex to the solid surface thus preventing formation of the colored end product. A result is generated in 90 minutes.
Effective lysis of both MRSA and MSSA were developed and optimized. The composition of the Lysis Reagent is as follows: 200 Units/ml of achromopeptidase (Wako Bioproducts, Wako), 0.02 mg/ml lysostaphin (Sigma, St. Louis, Mo.), 0.05% (v/v) Triton X 100® and 20 mM TES buffer, pH 8.5. […]
After cycling, 100 μl of Binding Reagent (Peroxidase Stabilizing Buffer, DAKO, Mississauga, ON), sheep polyclonal anti-fluorescein-horse radish peroxidase conjugated antibody (1/750 dilution, NEN, Boston, Mass.) was added to the tubes. […] The plate is read using a Vmax plate reader (Molecular Devices) set at OD of 650 nm (OD650).

mecA 227 bp amplicon = experiment: PCR followed by CPT-EIA detection of amplicon; format: biochemical, Staphylococcus aureus
Procedure: Crude lysates of MSSA (ATCC 11632) and MRSA (ATCC 33592) strains were grown overnight at 37° C. on tryptic soy agar with 5% sheep blood (PML Microbiologicals, Tualatin, Oreg.). A cell suspension was made in TES buffer (20 mM TES (pH 6.8), 0.05% Triton X-100) to obtain a cell density equivalent to a 5×McFarland#5 standard of turbidity (7.5×10^9 cells/ml). The cells were lysed with 150 U/ml achromopeptidase (Wako ) for 25 min at 37° C. After lysis, the cells were stored at −20° C. Adequate dilutions were made in deionized sterile water.
The PCR reaction was carried out in a 25 μl reaction containing 20 mM Tris,(pH 8.3) 1.5 MM MgCl2 0.2 mM dNTPs (Pharmacia), 6.25 pmol of each primer (Table 1) and 0.5 U AmpliTaq Gold (Perkin Elmer). The PTC-100 Programmable Thermal Cycler (MJ Research, Inc.) was used with the following PCR program: 95° C. for 10 min., 20×(94° C. for 40 s, 53° C. for 40 s and 72° C. for 1.5 min). The reaction was submitted to a final extension step at 72° C. for 5 min. and then held at 4° C. prior to analysis. PCR reactions were analyzed by CPT as described below or using a 2% agarose gel and ethidium bromide (Et-Br) staining.
The 227 bp mecA PCR product was used as a standard to determine the sensitivity of CPT-EIA and Et-Br stained gels. The amplicon was prepared as follows: several 100 μl reactions were subjected to 30 cycle PCR and the amplicon was purified using a Qiagen PCR purification kit as recommended by the manufacturer. The 227 bp product was quantified by spectrophometer and used as a standard.
CPT-EIA. The 25 μl PCR reaction was heat denatured at 95° C. for 2 min and then placed at 54° C. The CPT components in 25 μl were added to the PCR reaction to give a CPT reaction volume of 50 μl. […]

mecA gene [2] = experiment: CPT Direct Fluorescence Assay (CPT-DFA) on crude lysates; format: biochemical, Staphylococcus aureus
Procedure: Two experiments were carried out for the detection of the mecA gene from clinical isolates using the direct fluorescence assay (DFA) combined with CPT (CPT-DFA). In the first experiment, 58 isolates were screened using a plate reader format, and in the second experiment, 120 isolates were screened using single tube reader format. Briefly, the assay uses a fluoresceinated and biotinylated chimeric probe complementary to a sequence within the mecA gene present in MRSA, but not in MSSA. The probe is labeled with fluorescein at the 5′ end and biotin at the 3′ end. The CPT assay is performed with crude lysate preparations from Staphylococcal cells in the presence of RNase H and the chimeric probe. After the cycling reaction, streptavidin coated magnetic beads are added to bind the uncleaved probe. The supernatant containing the cleaved fragment labeled with fluorescein is separated from the beads using a magnet and the supernatant is transferred to a glass tube or a microtiter plate for fluorescence measurement.
The source of the fifty-eight clinical isolates were obtained from Cleveland Hospital, Wishard Memorial and Vancouver General Hospital. All MRSA and MSSA cells were prepared and lysed essentially as described in Example 4 except that the lysates were prepared as either 2×McFarland No. 5 standard density or 1 μl loop of cells in 50 μl volume. One μl loop of cells is approximately equivalent to 5×McFarland No. 5 standard.
The streptavidin coated magnetic beads (Dynal M-280, Oslo, Norway) were prepared by washing two times in an equal volume of TES cycling buffer (4 mM MgCl2, 0.05% Triton X-100®, 20 mM TES, pH 6.8). The beads were then re-suspended in 10 times the original volume with cycling buffer containing NaCl. The diluted beads were added to the reactions containing biotinylated probe to a final concentration of 50 μg of beads/reaction and a final NaCl concentration of 1.5 M. Binding was carried out in a thermomixer (Eppendorf) at 37° C. with mixing at a speed of 13×100 minutes^−, for 10 minutes. The supernatant was then separated from the beads using an MPC magnet (Dynal).
Probe was detected after binding using the Fluoroskan fluorescence plate reader (Labsystems, Needham. Mass.) by placing the supernatant containing the cleaved probe in a well of MicroFluor ‘U’ black round bottom plate (Dynatech, Chantilly, Va.). To each well containing a sample, 150 μl of 0.22 M DEA pH 10 was added. Any bubbles in the wells were removed using the edge of a Kimwipe (Roswell, Ga.). The plate was scanned in the plate reader with an excitation wavelength of 485 nm, an emission wavelength of 538 nm and a scan/well time of 20×0.1 sec, at room temperature. Similar detection using the Beacon-2000 tube reader (Panvera, Madison, Wis.) was performed, by placing the supernatant containing the probe in a borosilicate glass tube (Kimble, Toledo, Ohio), that contains 11 μl of 2.0 M DEA, pH 10. The samples were then vortexed and the fluorescence intensity was measured using the static mode of the Beacon-2000 instrument. The excitation and emission wavelengths were 485 nm and 515 nm respectively and an average of 10 read cycles at 25° C. was used.
The assay used a chimeric probe FmecA945-29(XL)4B3 (SEQ ID NO:5) labeled with fluorescein at the 5′ end and three biotin at the 3′ end. Cycling reactions with crude lysate were performed in a 50 PI reaction containing 25 μl of crude lysates. The lysates were denatured at 95° C. for 2 minutes. CPT reaction was carried out and the final conditions were as follows: 1 pmol chimeric probe, 25 μl of crude lysates, 50 μM EDTA, 0.5 mM spermine, 1.5 μg of RNase H in a final reaction volume of 50 μl. All reactions were cycled in a 60° C. water bath, in microcentrifuge tubes (uncapped) for 50 minutes. Reactions were stopped with the addition of an equal volume of diluted beads (50 μg of beads/reaction in Cycling Buffer and NaCl), while still in the water bath. Binding and detection were carried out as described above. […]

[3] = system: borderline oxacillin resistant S. aureus (BORSA) isolates; experiment: Disk diffusion, oxacillin in the presence of clavulanic acid; format: cell-based, Staphylococcus aureus
Procedure: (§1) The crude lysate preparations, probe synthesis, CPT procedure and analyses were carried out as described in Example 4 except that the cells were picked from the TSA blood plate with a 1 μl plastic loop (PML Microbiological, Richmond, BC, Canada) resuspended in 50 μl of 0.05% Triton X-100® in 20 mM TES buffer (pH 6.8) and lysed with the addition of achromopeptidase (Wako Bioproducts) as described in Example 4. The DNA was heat denatured at 95° C. for 5 minutes prior to use. The experiment was carried out as an operator blind study. The isolates were also tested with conventional oxacillin screening agar (PML Microbiological), Kirby-Bauer Disc diffusion, minimal inhibitory concentration (MIC) using E-Test with 4% NaCl Meuller-Hinton and S. aureus were tested with the BBL® Crystal™ MRSA ID test (Beckton Dickinson).

[4] = system: borderline oxacillin resistant S. aureus (BORSA) isolates; experiment: Minimal inhibitory concentration (MIC) using E-Test; format: cell-based; conditions: Staphylococcus aureus
Procedure: as §1

[5] = 58 isolates, Fluoroskan plate reader, relative to culture and PCR resolution
[6] = 120 isolates, 1 pmol probe, Beacon-2000 tube fluorometer
[7] = 120 isolates, Beacon-2000 tube fluorometer

Compound: FmecA945-29B (DNA AATAGAGAAAAAGAAAAAAGATGGCAAAG; sugars from the 5' end d13 r4 d12, 5' {Fluorescein}, 3' {Biotin}, backbone and methylation of C not given here; further chemistry not fully specified)
- A650 nm Mean (mecA gene [1]; MRSA clinical isolate lysates): 0.053
- A650 nm Mean (mecA gene [1]; MSSA clinical isolate lysates): 0.239
- starting MRSA cells whose amplicon CPT-EIA could detect (mecA 227 bp amplicon; 20 cycle PCR, serial dilution of crude lysates): ≥ 100 cells
- probe cleaved (mecA 227 bp amplicon; 100 MRSA cell equivalent samples, 20 cycle PCR): 80%
- number of times the target is cycled in CPT (mecA 227 bp amplicon; 100 MRSA cell equivalents, assuming 100% PCR efficiency (175 amol)): at least 50

Compound: FmecA945-29(XL)4B3 (DNA AATAGAGAAAAAGAAAAAAGATGGCAAAG; fluorescein and biotin labels, chimeric DNA/RNA, further chemistry not given here)
- sensitivity for detection of the mecA gene (mecA gene [2]; [5]): 100%
- specificity for detection of the mecA gene (mecA gene [2]; [5]): 100%
- range of fluorescence of MRSA samples (mecA gene [2]; [6]): 144.2-191.9
- range of fluorescence of MSSA samples (mecA gene [2]; [6]): 58.1-101.7 RFU
- net gap between the highest MSSA sample and the lowest MRSA (mecA gene [2]; [7]): 42.5 RFU
- sensitivity (mecA gene [2]; [7]): 100%
- specificity (mecA gene [2]; [7]): 98%

Compound: Cc1onc(-c2ccccc2)c1C(=O)N[C@@H]1C(=O)N2[C@@H]1SC(C)(C)[C@@H]2C(=O)O [oxacillin]
- susceptibility by disk diffusion [3]: susceptible
- MIC ([4]; 4 S. aureus isolates lacking mecA, oxacillin agar screen positive): 3 to 16 µg/mL (≈ 7.47 to 39.9 µM)
- MIC ([4]; additional 31 S. aureus isolates lacking mecA, E test): 3 to 12 µg/mL (≈ 7.47 to 29.9 µM)
